Laboratory results: ChEMBL document CHEMBL4196088, “Induction of cell killing and autophagy by amphiphilic pyrrolidine derivatives on human pancreatic cancer cells” (Eur J Med Chem, 2018)
Activity calls are given as the source filed them. The calls are words filed in the database; no cut-off is given here.

How the values were obtained:
BXPC-3 [1] = assay: Induction of apoptosis in human BxPC3 cells assessed as accumulation at sub-G0/G1 phase at 20 uM after 72 hrs by propidium iodide staining based flow cytometry (reference value: 3.4%); format: functional
BXPC-3 [2] = assay: Induction of apoptosis in human BxPC3 cells assessed as accumulation at sub-G0/G1 phase harboring pSFFV-Bcl-XL at 20 uM after 24 hrs by propidium iodide staining based flow cytometry (reference value: 1.2%); format: functional
BXPC-3 [3] = assay: Induction of apoptosis in human BxPC3 cells assessed as accumulation at sub-G0/G1 phase harboring pSFFV-Bcl-XL at 20 uM after 48 hrs by propidium iodide staining based flow cytometry (reference value: 1.3%); format: functional
BXPC-3 [4] = assay: Induction of apoptosis in human BxPC3 cells assessed as accumulation at sub-G0/G1 phase harboring pSFFV-Bcl-XL at 20 uM after 72 hrs by propidium iodide staining based flow cytometry (reference value: 1.3%); format: functional
PANC-1 [5] = assay: Induction of apoptosis in human PANC1 cells assessed as accumulation at sub-G0/G1 phase at 20 uM after 24 hrs by propidium iodide staining based flow cytometry (reference value: 0.6 to 0.7%); format: functional
PANC-1 [6] = assay: Induction of apoptosis in human PANC1 cells assessed as accumulation at sub-G0/G1 phase at 20 uM after 48 hrs by propidium iodide staining based flow cytometry (reference value: 0.2 to 2.9%); format: functional
PANC-1 [7] = assay: Induction of apoptosis in human PANC1 cells assessed as accumulation at sub-G0/G1 phase at 20 uM after 72 hrs by propidium iodide staining based flow cytometry (reference value: 1.6 to 3.2%); format: functional
PK9 [8] = assay: Induction of apoptosis in human PK9 cells assessed as accumulation at sub-G0/G1 phase at 20 uM after 24 hrs by propidium iodide staining based flow cytometry (reference value: 2.2%); format: functional
PK9 [9] = assay: Induction of apoptosis in human PK9 cells assessed as accumulation at sub-G0/G1 phase at 20 uM after 48 hrs by propidium iodide staining based flow cytometry (reference value: 3.8%); format: functional
PK9 [10] = assay: Induction of apoptosis in human PK9 cells assessed as accumulation at sub-G0/G1 phase at 20 uM after 72 hrs by propidium iodide staining based flow cytometry (reference value: 4%); format: functional
Fibroblast [11] = assay: Induction of apoptosis in human primary fibroblasts at 20 uM after 24 hrs by propidium iodide staining based flow cytometry (reference value: 4.8%); format: cell-based
[12] = Induction of apoptosis in HPNE cells assessed as accumulation at sub-G0/G1 phase at 20 uM after 24 hrs by propidium iodide staining based flow cytometry (reference value: 0.6%); format: cell-based; conditions: human
[13] = Induction of apoptosis in HPNE cells assessed as accumulation at sub-G0/G1 phase at 20 uM after 48 hrs by propidium iodide staining based flow cytometry (reference value: 0.7%); format: cell-based; conditions: human
[14] = Induction of apoptosis in HPNE cells assessed as accumulation at sub-G0/G1 phase at 20 uM after 72 hrs by propidium iodide staining based flow cytometry (reference value: 6.6%); format: cell-based; conditions: human
PANC-1 [15] = assay: Induction of apoptosis in human PANC1 cells assessed as accumulation at sub-G0/G1 phase at 10 uM after 48 hrs by propidium iodide staining based flow cytometry (reference value: 0.2 to 2.9%); format: functional
BXPC-3 [16] = assay: Induction of apoptosis in human BxPC3 cells assessed as accumulation at sub-G0/G1 phase at 10 uM after 24 hrs by propidium iodide staining based flow cytometry (reference value: 1.8%); format: functional
BXPC-3 [17] = assay: Induction of apoptosis in human BxPC3 cells assessed as accumulation at sub-G0/G1 phase at 10 uM after 48 hrs by propidium iodide staining based flow cytometry (reference value: 2.8%); format: functional
BXPC-3 [18] = assay: Induction of apoptosis in human BxPC3 cells harboring pSFFV-Bcl-XL assessed as accumulation at sub-G0/G1 phase at 10 uM after 72 hrs by propidium iodide staining based flow cytometry (reference value: 2%); format: functional
PK9 [19] = assay: Induction of apoptosis in human PK9 cells assessed as accumulation at sub-G0/G1 phase at 10 uM after 24 hrs by propidium iodide staining based flow cytometry (reference value: 2.2%); format: functional
PK9 [20] = assay: Induction of apoptosis in human PK9 cells assessed as accumulation at sub-G0/G1 phase at 10 uM after 72 hrs by propidium iodide staining based flow cytometry (reference value: 4%); format: functional
Fibroblast [21] = assay: Induction of apoptosis in human primary fibroblasts assessed as accumulation at sub-G0/G1 phase at 10 uM after 24 hrs by propidium iodide staining based flow cytometry (reference value: 4.8%); format: cell-based
Fibroblast [22] = assay: Induction of apoptosis in human primary fibroblasts assessed as accumulation at sub-G0/G1 phase at 10 uM after 48 hrs by propidium iodide staining based flow cytometry (reference value: 6.1%); format: cell-based
Fibroblast [23] = assay: Induction of apoptosis in human primary fibroblasts assessed as accumulation at sub-G0/G1 phase at 10 uM after 72 hrs by propidium iodide staining based flow cytometry (reference value: 6.7%); format: cell-based
MIA PaCa-2 [24] = assay: Induction of apoptosis in human MIAPaCa2 cells assessed as live cells at 20 uM after 24 hrs by Annexin V-FITC/propidium iodide staining based flow cytometry (reference value: 86.79%); format: functional
MIA PaCa-2 [25] = assay: Induction of apoptosis in human MIAPaCa2 cells assessed as early apoptotic cells at 20 uM after 24 hrs by Annexin V-FITC/propidium iodide staining based flow cytometry (reference value: 5.16%); format: functional
MIA PaCa-2 [26] = assay: Induction of apoptosis in human MIAPaCa2 cells assessed as late apoptotic cells at 20 uM after 24 hrs by Annexin V-FITC/propidium iodide staining based flow cytometry (reference value: 7.4%); format: functional
MIA PaCa-2 [27] = assay: Induction of apoptosis in human MIAPaCa2 cells assessed as necrotic cells at 20 uM after 24 hrs by Annexin V-FITC/propidium iodide staining based flow cytometry (reference value: 0.63%); format: functional
MIA PaCa-2 [28] = assay: Induction of apoptosis in human MIAPaCa2 cells assessed as early apoptotic cells at 20 uM after 48 hrs by Annexin V-FITC/propidium iodide staining based flow cytometry (reference value: 5.16%); format: functional
MIA PaCa-2 [29] = assay: Induction of apoptosis in human MIAPaCa2 cells assessed as necrotic cells at 20 uM after 48 hrs by Annexin V-FITC/propidium iodide staining based flow cytometry (reference value: 0.63%); format: functional
BXPC-3 [30] = assay: Induction of apoptosis in human BxPC3 cells assessed as accumulation at sub-G0/G1 phase at 20 uM after 24 to 48 hrs in presence of caspase inhibitor zVAD-fmk by propidium iodide staining based flow cytometry; format: functional, cell-based
MIA PaCa-2 [31] = assay: Induction of autophagy in human MIAPaCa2 cells assessed as increase in LC3-2 protein expression at 20 uM after 15 to 48 hrs by Western blot analysis; format: functional, cell-based
BXPC-3 [32] = assay: Induction of autophagy in human BxPC3 cells assessed as increase in LC3-2 protein expression at 20 uM after 15 to 48 hrs by Western blot analysis; format: functional, cell-based
BXPC-3 [33] = assay: Induction of apoptosis in human BxPC3 cells assessed as accumulation at sub-G0/G1 phase at 20 uM after 48 hrs in presence of autophagy inhibitor bafilomycin A1 by propidium iodide staining based flow cytometry; format: functional, cell-based

Row | SMILES | Activity (BXPC-3 [1]) [%] | Activity (BXPC-3 [2]) [%] | Activity (BXPC-3 [3]) [%] | Activity (BXPC-3 [4]) [%] | Activity (PANC-1 [5]) [%] | Activity (PANC-1 [6]) [%] | Activity (PANC-1 [7]) [%] | Activity (PK9 [8]) [%] | Activity (PK9 [9]) [%] | Activity (PK9 [10]) [%] | Activity (Fibroblast [11]) [%] | Activity [12] [%] | Activity [13] [%] | Activity [14] [%] | Activity (PANC-1 [15]) [%] | Activity (BXPC-3 [16]) [%] | Activity (BXPC-3 [17]) [%] | Activity (BXPC-3 [18]) [%] | Activity (PK9 [19]) [%] | Activity (PK9 [20]) [%] | further results
1 | CCCCCC/C=C\CCCCCCCCOC[C@H]1NC[C@H](O)[C@@H]1O | 46.8 | 2.8 | 6.7 | 8.6 | 5.3 | 14.5 | 27.1 | 10.1 | 20 | 28.6 | 9.2 | 70.6 | 75.7 | 81.7 | 7.1 | 9.6 | 12.8 | 4.1 | 3.8 | 6.5 | Activity (Fibroblast [21]): 7.9%; Activity (Fibroblast [22]): 8.7%; Activity (Fibroblast [23]): 9.5%; Activity (MIA PaCa-2 [24]): 76.71%; Activity (MIA PaCa-2 [25]): 11.88%; Activity (MIA PaCa-2 [26]): 10.68%; Activity (MIA PaCa-2 [27]): 0.71%; Activity (MIA PaCa-2 [28]): 47.46%; Activity (MIA PaCa-2 [29]): 3.44%; Activity (BXPC-3 [30]): inactive; Activity (MIA PaCa-2 [31]): Active; Activity (BXPC-3 [32]): Active; Activity (BXPC-3 [33]): Active
2 | CCCCCCCCCCCCCCCCCCOCC(COP(=O)([O-])OCC[N+](C)(C)C)OC (stereo unspecified) [EDELFOSINE] | 39.2 | 3 | 5 | 2.8 | 8.46 | 16.2 | 23.2 | 4.8 | 11.2 | 15.6 | 7.3 | 2.8 | 7.3 | 8.2 | 11.5 | 14.2 | 16.5 | 2.6 | 3.8 | 10.3 | Activity (Fibroblast [21]): 5.2%; Activity (Fibroblast [22]): 7.2%; Activity (Fibroblast [23]): 8.7%; Activity (MIA PaCa-2 [24]): 11.51%; Activity (MIA PaCa-2 [25]): 28.49%; Activity (MIA PaCa-2 [26]): 52.52%; Activity (MIA PaCa-2 [27]): 7.47%; Activity (MIA PaCa-2 [28]): 49.78%; Activity (MIA PaCa-2 [29]): 1.79%; Activity (BXPC-3 [30]): inactive; Activity (MIA PaCa-2 [31]): Active; Activity (BXPC-3 [32]): Active; Activity (BXPC-3 [33]): Active
